Literature values as cited in patent US20230201309A1, “COMPOSITIONS FOR THE TREATMENT OF A RESPIRATORY CONDITION” (VECTURA LIMITED, priority 2020, published 2023).

System: COVID-19

For `CCN(CCO)CCCC(C)Nc1ccnc2cc(Cl)ccc12` (centres unmarked) [hydroxychloroquine sulphate], the Hospital mortality (hospitalised COVID-19 patients, hydroxychloroquine sulphate monotherapy plus supportive care, total dose 2400 mg, 804/4,542 patients) is given as 17.7% and the “mortality, adjusted hazard ratio (aHR) vs no-hydroxychloroquine sulphate group” value (multivariate analysis, 95% CI 0.617-0.758) is given as 0.684.
